Reference: patent publication US4388236A, “Enkephalin-like compounds in bovine adrenal medulla” (Hoffmann-La Roche Inc., priority 1982, dated 1983)
Several values for one entry are separate records, joined by “and”; a condition that tells them apart may be missing. Equal values may be shown once. Entries after “also recorded” stand apart in the source; their conditions may differ. No end group written: not given here.

Tests used:
[1] = system: mice; assay: Tail flick response (analgesic assay); type: in vivo; set-up: tail flick response, Prior Injection Time (Control) Predose / tail flick response, Post Injection Time 2 min.: unit not given here; settings: for tail flick response, Prior Injection Time (Control) Predose / tail flick response, Post Injection Time 5 / tail flick response, Post Injection Time 10 / Response (analgesic activity) / tail flick response, Post Injection Time 2 min.: individual mice; for tail flick response, Prior Injection Time (Control) Predose: before intracerebral ventrical injection; for tail flick response, Post Injection Time 5 / tail flick response, Post Injection Time 10 / No. of Mice Responsive/Total No. of Mice / Response (analgesic activity) / tail flick response, Post Injection Time 2 min.: intracerebral ventrical, Beta-endorphin 4.5nm, Arg6-Phe7 met-enkephalin 6 n moles; for tail flick response, Post Injection Time 5 / tail flick response, Post Injection Time 10 / No. of Mice Responsive/Total No. of Mice / Response (analgesic activity): Acetylcholine 20ng; for tail flick response, Post Injection Time 10 / Response (analgesic activity) / tail flick response, Post Injection Time 2 min.: Met Enk 120nm
Description: For the analgesic assay, mice were injected (intracerebral ventrical) with 6 n moles of the synthetic peptide (Tyr-Gly-Gly-Phe-Met-Arg-Phe). The tail flick response assay was carried out according to the method of Dayton, et al., Proc. Soc. […] The tail flick response (analgesic activity) was measured prior to injection and at 2,5 and 10 minutes post injection time. Results are tabulated in Table V. Further results are given in Inturris, et. al., Proc. Nat'l. Acad. Sci. (U.S.A.), 77,5512 (1980).

[2] = biological target: T1, opiate receptor (Mus musculus, UniProt P32300); assay: Radioreceptor assay (opiate receptor binding activity)
T1 construct: endogenous in cells; host or cells: neuroblastoma x glioma hybrid cells (NG108-15)
T1 sequence (P32300 whole entry): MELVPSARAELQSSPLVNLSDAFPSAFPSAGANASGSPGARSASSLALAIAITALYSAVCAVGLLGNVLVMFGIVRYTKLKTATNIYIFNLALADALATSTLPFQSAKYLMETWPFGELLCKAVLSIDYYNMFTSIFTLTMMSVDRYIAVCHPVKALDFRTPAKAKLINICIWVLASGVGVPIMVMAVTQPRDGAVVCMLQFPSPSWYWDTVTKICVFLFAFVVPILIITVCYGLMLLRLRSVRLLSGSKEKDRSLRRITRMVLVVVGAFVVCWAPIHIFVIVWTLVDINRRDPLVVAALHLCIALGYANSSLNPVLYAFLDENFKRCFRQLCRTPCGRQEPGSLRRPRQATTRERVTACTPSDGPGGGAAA
From the text: Extracts of bovine adrenal medulla (BAM) or chromaffin granules (CG) therefrom were obtained by conventional methods known in the art and were purified using gel filtration, high pressure liquid chromatography (HPLC) and fluorometric detection by method of Bohlen, P. et al., Anal. Biochem. 67, 437 (1975).
Opioid activities for peaks I-V were quantitatively determined by conventional means in radioreceptor assays before (Native) and after trypsin digestion of each of the peaks from BAM and CG sources.

[3] = system: rats; settings: intracerebra-ventricular or intravenous administration to rats; cited from earlier work
[4] = system: C-terminal directed Leu-enkephalin antibody; assay: Radioimmunoassay with C-terminal directed Leu-enkephalin antibody; type: binding; settings: fractions from RP-18 of peak V; 1.3 g wet weight of chromaffin granules isolated from 30 g of adrenal medulla
Description: (§1) Radioimmunoassays were performed using a C-terminal directed Leu-enkephalinantibody and a N-terminal directed Met-enkephalin antibody. The characteristics of these antibodies and methods of use have been described previously and were followed in Lewis, R. V., et al., Biochem. Biophys. Res. Commun. 89, 822 (1979).

[5] = system: mice; settings: intracerebra-ventricular or intravenous administration to mice; cited from earlier work
[6] = system: N-terminal directed Met-enkephalin antibody; assay: Radioimmunoassay with N-terminal directed Met-enkephalin antibody; type: binding; settings: fractions from RP-18 of peak V; 1.3 g wet weight of chromaffin granules isolated from 30 g of adrenal medulla
Description: as §1

[7] = system: mice; assay: Tail flick response (analgesic assay); type: in vivo; set-up: tail flick response, Prior Injection Time (Control) Predose / tail flick response, Post Injection Time 2 min.: unit not given here; settings: individual mice

Row | Molecule | tail flick response, Prior Injection Time (Control) Predose [1] | tail flick response, Post Injection Time 5 [1] | tail flick response, Post Injection Time 10 [1] | No. of Mice Responsive/Total No. of Mice [1] | opiate receptor binding activity in radioreceptor assay (in words) [2] | Response (analgesic activity) [1] | other results
1 | CC(=O)OCC[N+](C)(C)C [Acetylcholine] | 4.6 and 5.0 and 4.5 | 6.1 and > 10 | > 10 | 3/3 | – | – | –
2 | CSCC[C@H](NC(=O)[C@H](Cc1ccccc1)NC(=O)CNC(=O)CNC(=O)[C@@H](N)Cc1ccc(O)cc1)C(=O)O [F-T-2] | – | – | – | – | most active tryptic peptide | – | –
3 | CC(C)C[C@H](NC(=O)[C@H](Cc1ccccc1)NC(=O)CNC(=O)CNC(=O)[C@@H](N)Cc1ccc(O)cc1)C(=O)O [Leu-Ek, leucine enkephalin] | – | – | – | – | – | – | analgesia [3]: weak and short term analgesia; C-Terminal radioimmunoassay [4]: 1.0 nmoles/fraction; analgesia [5]: weak and short term analgesia; N-Terminal radioimmunoassay [6]: 0.4 nmoles/fraction
4 | CSCC[C@H](NC(=O)[C@H](Cc1ccccc1)NC(=O)CNC(=O)CNC(=O)[C@@H](N)Cc1ccc(O)cc1)C(=O)O [Met-Ek, methionine enkephalin] | – | – | – | – | – | Neg. | Radioreceptor ([2]; fractions from RP-18 of peak V, 1.3 g wet weight of chromaffin granules isolated from 30 g of adrenal medulla): 1.0 nmoles/fraction; analgesia [3]: weak and short term analgesia; C-Terminal radioimmunoassay [4]: 0.03 nmoles/fraction; analgesia [5]: weak and short term analgesia; N-Terminal radioimmunoassay [6]: 1.0 nmoles/fraction; tail flick response, Prior Injection Time (Control) Predose ([7]; before intracerebral ventrical injection, listed as Met Enk): 4.1 and 5.4 and 4.6; tail flick response, Post Injection Time 10 ([7]; intracerebral ventrical, Met Enk 120nm, Acetylcholine 20ng, Beta-endorphin 4.5nm, Arg6-Phe7 met-enkephalin 6 n moles): 6.3 and 5.9 and 5.0; tail flick response, Post Injection Time 2 min. ([7]; intracerebral ventrical, Met Enk 120nm, Beta-endorphin 4.5nm, Arg6-Phe7 met-enkephalin 6 n moles): 4.0 and 4.7
5 | Beta-endorphin | 4.0 and 4.7 and 4.2 and 5.4 and 4.4 and 4.3 | > 10 and > 9 and 3.4 and 3.1 | 8 and > 10 and 3.8 | 5/7 | – | Pos. and Neg. | tail flick response, Post Injection Time 2 min. [1]: 5.9 and 3.0 and 4.4 and 3.8; tail flick response, Post Injection Time 20 ([7]; intracerebral ventrical, Beta-endorphin 4.5nm): > 10
6 | YGGFMK [F-T-1] | – | – | – | – | opiate receptor binding activity | – | –
7 | YGGFMK [Met-enkephalin-(Lys^6)] | – | – | – | – | – | – | binding to the receptor relative to Met-enkephalin ([2]; from binding curves): 9%
8 | YGGFMR [I-T-1] | – | – | – | – | active in the radioreceptor assay at high concentrations | – | –
9 | YGGFMR [Met-enkephalin-(Arg^6)] | – | – | – | – | active in the radioreceptor assay at high concentrations; also recorded: binds very poorly | – | binding activity relative to Leu-enkephalin [2]: less than 3%
10 | YGGFMRF [Arg^6 --Phe^7 met-enkephalin, Tyr-Gly-Gly-Phe-Met-Arg-Phe] | 5.7 and 5.2 and 4.6 and 3.6 and 3.7 and 4.0 | 5.4 and 4.2 and 3.8 and 9.0 and 4.0 | 6.3 and 5.8 and > 10 and 5.0 and 4 | 4/8 | – | Neg. and Pos. and neg. | tail flick response, Post Injection Time 2 min. [1]: 4.9 and 4.6 and 4.3 and 4.0 and 3.4 and 4.5
